{"source": "patent US20040200144A1", "about": "“Plant growth regulator and a method of producing the regulator” (Dainichiseika Color & Chemicals Mfg. Co., Ltd., priority 2003, published 2004)", "type_in_all_cases": "in vivo", "key": {"melon young plants": {"test_system": "melon young plants", "assay": "Dwarfing test of melon young plant", "conditions": "for Plant Height / Dwarfing Rate: 5 ml per cell on 7th day, measured 25th day; for Dwarfing Rate: vs comparative group", "protocol": "After seeding, the pot was placed in the same greenhouse as described above to sprout. Subsequently, on the 5th day, the cinnamic aqueous acid solutions were added to the nursery soil in the joint pots. One of the joint pots (24 cells) was prepared as a 0.05% cinnamic acid aqueous solution addition group, and 5 ml of the 0.05% cinnamic acid aqueous solution was added to the nursery soil of each cell. Another one of the join pots was prepared as a 0.2% cinnamic acid aqueous solution addition group, and 5 ml of the 0.2% cinnamic acid aqueous solution was added to the nursery soil of each cell. […] Subsequently, the cultivation of carrot young plants in each group was continued under general conditions. On the 27th day, the heights of young plants in each group were measured, the dwarfing rate (%) was calculated, and the dwarfing effect of cinnamic acid aqueous solution on carrot young plants was examined. From the results in Table 5, it became evident that the 0.05% and 0.2% cinnamic acid aqueous solutions are effective in dwarfing carrot young plants. In the same way as in Example 5 except that seeds of cauliflower were sowed, the cinnamic acid solutions were added to the nursery soil in the joint pot on the 4th day, and that heights of young plants in each group were measured on the 20th day, the dwarfing effect of cinnamic acid aqueous solution on cauliflower young plants was examined. From the results in Table 12, it became evident that the cinnamic acid aqueous solutions are effective in dwarfing cauliflower young plants. In the same way as in Example 12 except that seeds of tomato were sowed, and that the cinnamic acid solutions were added to the nursery soil of the joint pot on the 7th day, the dwarfing effect of cinnamic acid aqueous solution on tomato young plants was examined. From the results in Table 17, it became evident that the cinnamic acid aqueous solutions are effective in dwarfing tomato young plants. In the same way as in Example 17 except that seeds of melon were sowed, and that plant heights were measured on the 25th day, the dwarfing effect of cinnamic acid aqueous solution on melon young plants was examined. From the results in Table 25, it became evident that the cinnamic acid aqueous solutions are effective in dwarfing melon young plants."}, "[1]": {"test_system": "Chinese cabbage young plants", "assay": "Dwarfing test of Chinese cabbage young plant", "conditions": "for Plant Height / Dwarfing Rate: 5 ml per cell on 4th day, measured 22nd day; for Dwarfing Rate: vs comparative group", "protocol": "Dwarfing rate (%)=[(the plant height of the comparative group)−(the plant height of an addition group)/the plant height of the comparative group]×100\n18.4 g of potassium hydroxide was dissolved in 400 ml of distilled water at 20° C., 50 g of cinnamic acid was added to the potassium hydroxide solution and dissolved by stirring, the resultant solution was diluted with distilled water until the total volume of solution was 500 ml, and thus 10% cinnamic acid aqueous solution (pH 8.8) was prepared. The aqueous solution was further diluted with distilled water 100 times or 33.3 times, and 0.1% cinnamic acid aqueous solution and 0.3% cinnamic acid aqueous solution were prepared, respectively.\nNursery soil for house use was filled into a polyethylene joint pot (36 cells: 45×45×30 mm/cell), water was sufficiently given to the soil, and seeds of Chinese cabbage were sowed. After seeding, the pot was placed in the same greenhouse as described above to sprout. Subsequently, on the 4th day, the cinnamic aqueous acid solutions were added to the nursery soil in the joint pot.\nAmong 36 cells, 12 cells were prepared as a 0.1% cinnamic acid aqueous solution addition group, and 5 ml of the 0.1% cinnamic acid aqueous solution was added to the nursery soil of each cell. Another 12 cells were prepared as a 0.3% cinnamic acid aqueous solution addition group, and 5 ml of the 0.3% cinnamic acid aqueous solution was added to the nursery soil of each cell. Remaining 12 cells were prepared as a comparative group in which 5 ml of water is added to each cell, instead of the cinnamic acid aqueous solution. Subsequently, the cultivation of Chinese cabbage young plants in each group was continued under general conditions. On the 22nd day, the heights of young plants in each group were measured, the dwarfing rate (%) was calculated, and the dwarfing effect of cinnamic acid aqueous solution on Chinese cabbage young plants was examined. […]"}, "[2]": {"test_system": "Cucumis melo var. makuwa young plants", "assay": "Dwarfing test of Cucumis melo var. makuwa young plant", "conditions": "for Plant Height / Dwarfing Rate: 5 ml per cell on 7th day, measured 27th day; for Dwarfing Rate: vs comparative group", "protocol": "50 g of sodium tripolyphosphate was dissolved in 400 ml of distilled water at 80° C., 17.5 g of cinnamic acid was added to the sodium tripolyphosphate solution and dissolved by stirring, the resultant solution was diluted with distilled water until the total volume of solution was 500 ml, and thus 3.5% cinnamic acid aqueous solution (pH 6.5) was prepared. The aqueous solution was further diluted with distilled water 70 times or 17.5 times, and 0.05% cinnamic acid aqueous solution and 0.2% cinnamic acid aqueous solution were prepared, respectively.\nNursery soil for house use was filled into paper joint pots (each with 24 cells: 34×43×50 mm/cell), water was sufficiently given to the soil, and seeds of carrots were sowed. After seeding, the pot was placed in the same greenhouse as described above to sprout. Subsequently, on the 5th day, the cinnamic aqueous acid solutions were added to the nursery soil in the joint pots. One of the joint pots (24 cells) was prepared as a 0.05% cinnamic acid aqueous solution addition group, and 5 ml of the 0.05% cinnamic acid aqueous solution was added to the nursery soil of each cell. Another one of the join pots was prepared as a 0.2% cinnamic acid aqueous solution addition group, and 5 ml of the 0.2% cinnamic acid aqueous solution was added to the nursery soil of each cell. The other one of the joint pots was prepared as a comparative group in which 5 ml of water is added to each cell, instead of the cinnamic acid aqueous solution. Subsequently, the cultivation of carrot young plants in each group was continued under general conditions. On the 27th day, the heights of young plants in each group were measured, the dwarfing rate (%) was calculated, and the dwarfing effect of cinnamic acid aqueous solution on carrot young plants was examined. […].\nIn the same way as in Example 12 except that seeds of tomato were sowed, and that the cinnamic acid solutions were added to the nursery soil of the joint pot on the 7th day, the dwarfing effect of cinnamic acid aqueous solution on tomato young plants was examined. […].\nIn the same way as in Example 17 except that seeds of watermelon were sowed, and that plant heights were measured on the 27th day, the dwarfing effect of cinnamic acid aqueous solution on watermelon young plants was examined. […].\nIn the same way as in Example 21 except that seeds of Cucumis melo var. makuwa were sowed, the dwarfing effect of cinnamic acid aqueous solution on Cucumis melo var. makuwa young plants was examined. […]"}}, "data": [{"smiles": "O=C(O)C=Cc1ccccc1", "note": "[cinnamic acid]", "values": [{"measurement": "Plant Height", "setting": "melon young plants; 0.05% aqueous solution", "value": 6.3, "unit": "cm"}, {"measurement": "Dwarfing Rate", "setting": "melon young plants; 0.05% aqueous solution", "value": 4.5, "unit": "%"}, {"measurement": "Plant Height", "setting": "melon young plants; 0.2% aqueous solution", "value": 4.1, "unit": "cm"}, {"measurement": "Dwarfing Rate", "setting": "melon young plants; 0.2% aqueous solution", "value": 37.9, "unit": "%"}, {"measurement": "dwarfing effect", "setting": "melon young plants; melon young plants, 0.05% and 0.2% aqueous solutions", "value": "effective"}, {"measurement": "Plant Height", "setting": "[1]; 0.1% aqueous solution", "value": 7.0, "unit": "cm"}, {"measurement": "Dwarfing Rate", "setting": "[1]; 0.1% aqueous solution", "value": 23.9, "unit": "%"}, {"measurement": "Plant Height", "setting": "[1]; 0.3% aqueous solution", "value": 6.9, "unit": "cm"}, {"measurement": "Dwarfing Rate", "setting": "[1]; 0.3% aqueous solution", "value": 25.0, "unit": "%"}, {"measurement": "dwarfing effect", "setting": "[1]; Chinese cabbage young plants, 0.1% and 0.3% aqueous solutions", "value": "effective"}, {"measurement": "Plant Height", "setting": "[2]; 0.05% aqueous solution", "value": 6.1, "unit": "cm"}, {"measurement": "Dwarfing Rate", "setting": "[2]; 0.05% aqueous solution", "value": 6.2, "unit": "%"}, {"measurement": "Plant Height", "setting": "[2]; 0.2% aqueous solution", "value": 4.7, "unit": "cm"}, {"measurement": "Dwarfing Rate", "setting": "[2]; 0.2% aqueous solution", "value": 27.7, "unit": "%"}, {"measurement": "dwarfing effect", "setting": "[2]; Cucumis melo var. makuwa young plants, 0.05% and 0.2% aqueous solutions", "value": "effective"}]}]}
